Test results: US4570005A, “Process for the preparation of 2-arylpropyl ether or thioether derivatives” (priority 1980, dated 1986)

What was measured:
[1] = tested on: tobacco cutworm; assay: Test 2: Tobacco Cutworm Larva Dipping Test, mortality after 24 hours; format: in vivo; details: 24 hours
Experimental: (§1) To a mixture of 20 parts of the compound of the present invention and 20 parts of Sorpol SM-200 (registered tradename for the product supplied by Toho Chemical Industrial Co., Ltd.) was added 60 parts of xylol, and the mixture was suffciently blended. The obtained emulsifiable concentrate was diluted at a predetermined concentration with distilled water, and the obtained dilution was used.
A dilution having a chemical concentration of 100 or 20 ppm was prepared in the same manner as described in Test 1.
Second-instar and fifth-instar larvae of tobacco cutworm were dipped in the dilution for 5 seconds, and the excessive dilution was removed by a filter paper. Then, the larvae were set free in a plastic cup and an artificial diet was supplied thereto. The cup was allowed to stand still in a thermostat chamber maintained at 25° C. After 24 hours, the numbers of the killed and living larvae were counted and the mortality was calculated. The test was made on three cups and the result was expressed by an average value.

[2] = Test 9: Toxicity Test (acute oral toxicity, mice); details: mouse, in vivo, po
Experimental: A predetermined amount of a solution or suspension of a test compound in corn oil was orally administered to male mice having a body weight of 19 to 23 g (0.2 ml per 10 g of the body weight). After 7 days, the number of killed mice was counted and the influences on the mice were examined.

[3] = tested on: German cockroach; assay: Test 7: Effect on German Cockroach; format: in vivo; details: Blattella germanica, male adults, agonized and killed after 24 hours, read-out: Mortality (%); for mortality at 10 mg/m2: 10 mg/m^2; for mortality at 50 mg/m2: 50 mg/m^2
Experimental: as §1
The bottom face of a high Petri dish having a diameter of 9 cm and a height of 9 cm was treated with 50 or 10 mg/m^2 of a test compound and the dish was air-dried. In order to prevent the adults from escaping from the dish, the inner wall of the dish was treated with butter. Then, 10 male adults of German cockroach were set free in each dish, and the dish was placed in a thermostat chamber maintained at 25° C. After 24 hours, the number of agonized and killed adults was counted. The test was made on two dishes and the average value was calculated.

[4] = tested on: tobacco cutworm; assay: Test 1: Effect on Tobacco Cutworm (leaf immersion), mortality after 24 hours; format: in vivo; details: second-instar larvae, 25° C
Experimental: as §1
An emulsifiable concentrate of a test compound prepared according to the method described in Formulation Example 1 was diluted to a concentration of 100 or 20 ppm. Sweet-potato leaves were immersed in the dilution for 10 seconds, air-dried and placed in a plastic cup having a diameter of 10 cm. Then second-instar larvae of tobacco cutworm were set free in the cup. The cup was allowed to stand still in a thermostat chamber maintained at 25° C. After 24 hours, the numbers of killed and living larvae were counted and the mortality was calculated. The obtained result was expressed by an average value obtained from the mortality calculated in three test cups.

[5] = tested on: sensitive green rice leafhopper (collected at Chigasaki); assay: whole plant or invertebrate; format: in vivo; details: Nephotettix cincticeps, sensitive female adults, 24 hours, read-out: Mortality (%), Green Rice Leafhopper Collected at Chigasaki
Experimental: as §1
(§2) Seedlings (having 2 to 3 leaves) of paddy rice were hydroponically cultured in a pot having a diameter of 5 cm. A chemical dilution having a concentration of 100 or 20 ppm, prepared in the same manner as described in Test 1, was applied with a sprayer at a rate of 3 ml per pot. The treated seedlings were air-dried and covered with a metal net cylinder, and female adults of resistant green rice leafhopper (collected at Nakagawara) and sensitive green rice leafhopper (collected at Chigasaki) were set, respectively, free in the pot at a density of 10 adults per pot. After 24 hours, the numbers of killed and living adults were counted and the mortality was calculated. The test was made on three pots and the average value was calculated.

[6] = tested on: resistant green rice leafhopper (collected at Nakagawara); assay: Test 3: Effect on Resistant Green Rice Leafhopper (collected at Nakagawara); format: in vivo, Nephotettix cincticeps Uhler (Green rice leafhopper); details: Nephotettix cincticeps, 24 h, read-out: Mortality (%), Green Rice Leafhopper Collected at Nakagawara
Experimental: as §1, §2

[7] = tested on: diamond back moth; assay: Test 4: Effect on Diamond Back Moth; format: in vivo; details: Plutella, third-instar larvae, 24 hours, read-out: Mortality (%)
Experimental: as §1
Cabbage leaves were spread in a plastic cup, and 10 third-instar larvae of diamond back moth were set free in the cup.
A chemical dilution having a concentration of 100 or 20 ppm, prepared in the same manner as described in Test 1, was applied from an applicator at a rate of 3 ml per cup.
After scattering of the chemical dilution, the cup was covered, and after 24 hours, the numbers of killed and living larvae were counted and the mortality was calculated. The test was made on three cups and the average value was calculated.

[8] = fifth-instar larvae, read-out: Motality (%), Fifth-Instar Larvae
[9] = second-instar larvae, read-out: Motality (%), Second-Instar Larvae

Q: Which results are given for CC(F)(F)Oc1ccc(C(C)(C)COCc2cccc(Oc3ccccc3)c2)cc1 [Compound 79, 3-Phenoxybenzyl 2-[4-(1,1-difluoroethoxy)phenyl]-2-methylpropyl ether]?
A: mortality at 20 ppm [1, 8]: 50%; mortality at 20 ppm [1, 9]: 80%; mortality at 100 ppm [1, 8]: 90%; mortality at 100 ppm [1, 9]: 100%; LD50 at 168 h [2]: > 500 mg/kg; mortality at 10 mg/m2 [3]: 100%; mortality at 50 mg/m2 [3]: 100%

Q: What does the source list for CC(C)(COCc1cccc(Oc2ccccc2)c1)c1ccc(OC(F)(F)CI)cc1 [Compound 74, 3-Phenoxybenzyl 2-[4-(1,1-difluoro-2-iodoethoxy)phenyl]-2-methylpropyl ether]?
A: mortality at 20 ppm [1, 8]: 50%; mortality at 20 ppm [1, 9]: 70%; mortality at 100 ppm [1, 8]: 80%; mortality at 100 ppm [1, 9]: 100%; LD50 at 168 h [2]: > 500 mg/kg; mortality at 20 ppm [4]: 100%; mortality at 100 ppm [4]: 100%; mortality at 10 mg/m2 [3]: 100%; mortality at 50 mg/m2 [3]: 100%

Q: Which mortality at 20 ppm [5] does the source give for CC(C)(COCc1cccc(Oc2ccccc2)c1)c1ccc([N+](=O)[O-])cc1 [Compound 43, 3-Phenoxybenzyl 2-(4-nitrophenyl)-2-methylpropyl ether] here?
A: 90%

Q: And the mortality at 100 ppm [5]?
A: 100%

Q: What about the mortality at 20 ppm [6] of the same compound?
A: 100%

Q: And the mortality at 100 ppm [6]?
A: 100%

Q: And the LD50 at 168 h [2]?
A: > 500 mg/kg

Q: And the mortality at 20 ppm [4]?
A: 85%

Q: What about the mortality at 100 ppm [4] of the same compound?
A: 100%

Q: And the mortality at 10 mg/m2 [3]?
A: 100%

Q: And the mortality at 50 mg/m2 [3]?
A: 100%

Q: Which results are given for CC(C)(COCc1cccc(Oc2cccc(Cl)c2)c1)c1ccc(Cl)c(Cl)c1 [Compound 38, 3-(3-Chlorophenoxy)benzyl 2-(3,4-dichlorophenyl)-2-methylpropyl ether]?
A: mortality at 20 ppm [5]: 80%; mortality at 100 ppm [5]: 100%; mortality at 20 ppm [6]: 95%; mortality at 100 ppm [6]: 100%; LD50 at 168 h [2]: > 500 mg/kg; mortality at 10 mg/m2 [3]: 90%; mortality at 50 mg/m2 [3]: 100%

Q: For Cc1ccc(C(C)(C)COCc2cccc(Oc3ccccc3)c2)cc1C [Compound 109], which mortality at 20 ppm [5] is on record?
A: 70%

Q: What about the mortality at 100 ppm [5] of the same compound?
A: 100%

Q: What about the mortality at 20 ppm [6] of the same compound?
A: 90%

Q: What about the mortality at 100 ppm [6] of the same compound?
A: 100%

Q: What about the LD50 at 168 h [2] of the same compound?
A: > 500 mg/kg

Q: What about the mortality at 10 mg/m2 [3] of the same compound?
A: 100%

Q: What about the mortality at 50 mg/m2 [3] of the same compound?
A: 100%

Q: For CC(C)(COCc1cccc(Oc2ccccc2)c1)c1ccc(SC(F)(F)F)cc1 [Compound 104, 3-Phenoxybenzyl 2-(4-trifluoromethylthiophenyl)-2-methylpropyl ether], which mortality at 20 ppm [7] is on record?
A: 70%

Q: What about the mortality at 100 ppm [7] of the same compound?
A: 100%

Q: And the LD50 at 168 h [2]?
A: > 500 mg/kg

Q: And the mortality at 10 mg/m2 [3]?
A: 90%

Q: What about the mortality at 50 mg/m2 [3] of the same compound?
A: 100%

Q: Which mortality at 20 ppm [5] does the source give for CC(C)(COCc1cccc(Oc2ccccc2)c1)c1ccc(I)cc1 [Compound 65, 3-Phenoxybenzyl 2-(4-iodophenyl)-2-methylpropyl ether] here?
A: 100%

Q: What about the mortality at 100 ppm [5] of the same compound?
A: 100%

Q: And the mortality at 20 ppm [6]?
A: 100%

Q: What about the mortality at 100 ppm [6] of the same compound?
A: 100%

Q: And the LD50 at 168 h [2]?
A: > 500 mg/kg

Q: And the mortality at 20 ppm [4]?
A: 90%

Q: And the mortality at 100 ppm [4]?
A: 100%

Q: What about the mortality at 10 mg/m2 [3] of the same compound?
A: 90%

Q: And the mortality at 50 mg/m2 [3]?
A: 100%

Q: Which results are given for CC(C)(COCc1cccc(Oc2ccccc2)c1)c1ccc(OC2CCCC2)cc1 [Compound 61, 3-Phenoxybenzyl 2-(4-cyclopentyloxyphenyl)-2-methylpropyl ether]?
A: mortality at 20 ppm [5]: 100%; mortality at 100 ppm [5]: 100%; mortality at 20 ppm [6]: 100%; mortality at 100 ppm [6]: 100%; LD50 at 168 h [2]: > 500 mg/kg; mortality at 10 mg/m2 [3]: 70%; mortality at 50 mg/m2 [3]: 100%

Q: Which results are given for CC(C)(COCc1cccc(Oc2ccc(F)cc2)c1)c1ccc(Cl)c(Cl)c1 [Compound 17, 3-(4-fluorophenoxy)benzyl 2-(3,4-dichlorophenyl)-2-methylpropyl ether]?
A: mortality at 20 ppm [7]: 90%; mortality at 100 ppm [7]: 100%; mortality at 20 ppm [5]: 100%; mortality at 100 ppm [5]: 100%; mortality at 20 ppm [6]: 100%; mortality at 100 ppm [6]: 100%; LD50 at 168 h [2]: > 500 mg/kg; mortality at 20 ppm [4]: 80%; mortality at 100 ppm [4]: 100%; mortality at 10 mg/m2 [3]: 100%; mortality at 50 mg/m2 [3]: 100%
